Experimental data reported in ChEMBL document CHEMBL1201862, “PubChem BioAssay data set” (2004).
Where “and” joins values, the source holds several entries; their conditions need not be identical. Equal values may be shown once.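 Step 1: Grow cells in 96-well plates. Step 2: Expose to compound for 48 hours at 5 concentrations. Step 3: Interpolate endpoints linearly; if unreached, use highest concentration. The concentration for 50% growth inhibition is given as GI50.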 Calls of active or inactive are those of the source. Rule as the data show it: active = GI50 up to about 1.1 µM and inactive = higher.

Experiments:
Assay in all cases: NCI anticancer screen, dose series, 48 h
SR = test system: SR
UACC-62 = test system: UACC-62
UO-31 = test system: UO-31
MDA-MB-231 = test system: MDA-MB-231
OVCAR-4 = test system: OVCAR-4
ACHN = test system: ACHN
MDA-N = test system: MDA-N
COLO 205 = test system: COLO 205
CAKI-1 = test system: CAKI-1
Hs-578T = test system: Hs-578T
OVCAR-8 = test system: OVCAR-8
LOX IMVI = test system: LOX IMVI
HL-60 = test system: HL-60
NCI-H23 = test system: NCI-H23
RPMI-8226 = test system: RPMI-8226
A498 = test system: A498
SK-MEL-28 = test system: SK-MEL-28
HCC 2998 = test system: HCC 2998
SW-620 = test system: SW-620
UACC-257 = test system: UACC-257

Measured: GI50

CN(C)CCS/C(=N\c1ccccc1)N1C=COC=C1
inactive: SR 68.9 µM | UACC-62 16 µM | UO-31 57.3 µM | MDA-MB-231 20.9 µM | OVCAR-4 > 44.6 µM | ACHN 34.1 µM | MDA-N 24 µM | COLO 205 27.2 µM | CAKI-1 > 33.3 µM | Hs-578T 89.1 µM | OVCAR-8 37.5 µM | LOX IMVI 16 µM | HL-60 > 77.6 µM | NCI-H23 25.8 µM | RPMI-8226 61.7 µM | A498 > 100 µM | SK-MEL-28 19.5 µM | HCC 2998 24.7 µM | SW-620 21.4 µM | UACC-257 18.2 µM

O=c1oc2ccc(Cl)cc2c2ccccc12
inactive: SR > 100 µM | UACC-62 71.6 µM | MDA-MB-231 17.4 µM | OVCAR-4 > 100 µM | ACHN > 100 µM | MDA-N > 100 µM | COLO 205 65.8 µM | CAKI-1 43 µM | Hs-578T 18.3 µM | OVCAR-8 65 µM | LOX IMVI > 100 µM | HL-60 > 100 µM | NCI-H23 23.8 µM | RPMI-8226 > 100 µM | A498 75.7 µM | SK-MEL-28 > 100 µM | HCC 2998 > 100 µM | SW-620 > 100 µM | UACC-257 > 100 µM

N[C@H](CCC(=O)NCP(=O)(O)O)C(=O)O
inactive: SR > 100 µM | UACC-62 > 100 µM | UO-31 > 100 µM | MDA-MB-231 > 100 µM | ACHN > 100 µM | MDA-N > 100 µM | COLO 205 > 100 µM | Hs-578T > 100 µM | OVCAR-8 > 100 µM | HL-60 > 100 µM | NCI-H23 > 100 µM | RPMI-8226 > 100 µM | A498 > 100 µM | SK-MEL-28 > 100 µM | HCC 2998 > 100 µM | SW-620 > 100 µM | UACC-257 > 100 µM

NC(Cc1ccc(N(CCCl)CCCl)cc1)C(=O)NC(CCC(=O)O)C(=O)O (centres undefined)
inactive: SR 38 µM and 60.4 µM | UACC-62 > 100 µM | UO-31 > 100 µM | MDA-MB-231 > 100 µM | OVCAR-4 > 100 µM | ACHN > 100 µM | MDA-N > 100 µM | COLO 205 > 100 µM | CAKI-1 > 100 µM | Hs-578T > 100 µM | OVCAR-8 > 100 µM | LOX IMVI > 100 µM | HL-60 > 100 µM | NCI-H23 > 100 µM | RPMI-8226 > 100 µM | A498 > 100 µM | SK-MEL-28 > 100 µM | HCC 2998 > 100 µM | SW-620 > 100 µM | UACC-257 > 100 µM

CC(C)NC(=O)OCc1c(COC(=O)NC(C)C)n(C)c2c1ccc1ccsc12
inactive: SR 2.37 µM | UACC-62 6.9 µM | UO-31 7.1 µM | MDA-MB-231 16.7 µM | OVCAR-4 3.61 µM | ACHN 3.05 µM | MDA-N 12.4 µM | COLO 205 12.9 µM | CAKI-1 1.81 µM | Hs-578T 8.87 µM | OVCAR-8 9.59 µM | LOX IMVI 5.57 µM | HL-60 2.69 µM | NCI-H23 5.28 µM | RPMI-8226 2.94 µM | A498 9.73 µM | SK-MEL-28 12.6 µM | HCC 2998 14.4 µM | SW-620 5.19 µM | UACC-257 13.5 µM

Cc1ccc2c(c1)CC1(Cc3ccccc3C1=O)C2=O (centres undefined)
inactive: SR > 100 µM | UACC-62 > 100 µM | UO-31 > 100 µM | MDA-MB-231 > 100 µM | OVCAR-4 > 100 µM | ACHN > 100 µM | MDA-N > 100 µM | COLO 205 > 100 µM | Hs-578T > 100 µM | OVCAR-8 > 100 µM | LOX IMVI > 100 µM | HL-60 > 100 µM | NCI-H23 > 100 µM | RPMI-8226 > 100 µM | A498 > 100 µM | SK-MEL-28 > 100 µM | HCC 2998 > 100 µM | SW-620 > 100 µM | UACC-257 > 100 µM

O=[N+]([O-])/C(C(Cl)=C(Cl)Cl)=C1/OCCS1
inactive: SR 30.1 µM | UACC-62 25.5 µM | UO-31 23.1 µM | MDA-MB-231 17.5 µM | OVCAR-4 30.4 µM | ACHN 20.4 µM | MDA-N 41.6 µM | COLO 205 19.8 µM | CAKI-1 29.6 µM | Hs-578T 39.7 µM | OVCAR-8 16.8 µM | LOX IMVI 21.4 µM | HL-60 16.9 µM | NCI-H23 23.4 µM | RPMI-8226 22.9 µM | A498 20.3 µM | SK-MEL-28 31.8 µM | HCC 2998 37.9 µM | UACC-257 27.7 µM
